Laboratory results taken from the OPERA property sets (Mansouri et al. 2018).

Row | Compound | logP
1 | COc1ccc(C(=O)N(C)N)cc1 | 1
2 | CC=NN(C(=O)c1ccc(OC)cc1)c1ccccc1 | 3.18
3 | O=C(c1ccccc1)N(NC(=S)Nc1ccccc1)c1ccccc1 | 3.73
4 | Cc1ccc(C(=O)N(C)N)cc1 | 1.36
5 | NN(C(=O)c1ccc([N+](=O)[O-])cc1)c1ccccc1 | 2.48
6 | CC=NN(C(=O)c1ccccc1)c1ccccc1 | 2.76
7 | NN(C(=O)c1ccccc1)c1ccccc1 | 2.3
8 | COc1ccc(C(=O)N(C)NC(=S)Nc2ccccc2)cc1 | 2.56
9 | O=C(c1ccc([N+](=O)[O-])cc1)N(NC(=S)Nc1ccccc1)c1ccccc1 | 3.87
10 | CN(N)C(=O)c1ccc([N+](=O)[O-])cc1 | 0.75
11 | CN(NC(=S)Nc1ccccc1)C(=O)c1ccccc1 | 2.47
12 | CC=NN(C(=O)c1ccc([N+](=O)[O-])cc1)c1ccccc1 | 3.08
13 | Cc1ccc(C(=O)N(C)NC(=S)Nc2ccccc2)cc1 | 3.01
14 | CN(N)C(=O)c1ccccc1 | 0.7
15 | CN(NC(=S)Nc1ccccc1)C(=O)c1ccc([N+](=O)[O-])cc1 | 2.68
16 | CC=NN(C(=O)c1ccc(C)cc1)c1ccccc1 | 3.6
17 | COc1ccc(C(=O)N(N)c2ccccc2)cc1 | 2.83
18 | Cc1ccc(C(=O)N(N)c2ccccc2)cc1 | 3
19 | COc1ccc(C(=O)N(NC(=S)Nc2ccccc2)c2ccccc2)cc1 | 3.94
20 | Cc1ccc(C(=O)N(NC(=S)Nc2ccccc2)c2ccccc2)cc1 | 4.08
